# Patent US12697477B2, “Device for delivery of antimicrobial agent into a medical device” (ICU Medical, Inc., priority 2011, dated 2026)
# What was measured:
# Assay type in all cases: cell-based
# [1] = tested on: Candida albicans, Pseudomonas aeruginosa, Staphylococcus aureus, and Escherichia coli; assay: Laboratory testing of elongate members in catheters under a variety of lock solutions and challenge organisms; conditions: lock solutions saline, heparinized-saline, 4% sodium citrate solution, human serum
# Experimental: The minimum amount of antimicrobial agent on elongate member 33 was determined through laboratory testing in which elongate members were placed into catheters under a variety of lock solutions and challenge organisms. The type of lock solution was varied among saline, heparinized-saline, 4% sodium citrate solution, and human serum. A variety of challenge organisms were used, such as Candida albicans, Pseudomonas aeruginosa, Staphylococcus aureus, and Escherichia coli.
# Candida albicans = assay: Coated cap luer against Candida albicans seeded within the catheter's luer region; conditions: 50 μg coated on the cap's luer portion
# Experimental: For instance, if using a chlorhexidine based antimicrobial, approximately 50 μg of chlorhexidine acetate can be effective in some embodiments. […] The caps containing the coated luers killed all of the Candida albicans that were seeded within the catheter's luer region. Within the same experiment, the Candida albicans remained viable when uncoated caps were used. Greater than 5 μg chlorhexidine acetate on the luer region is effective; 10 μg to 300 μg is preferred, and 30 μg to 80 μg is most preferred.
# [2] = tested on: infection-causing organisms; assay: Laboratory testing of the coated elongate member in standard hemodialysis catheters; conditions: 250 μg on the elongate member; catheters containing saline, heparin-saline, or saline with 4% sodium citrate
# Experimental: The safety profile of the invention can be enhanced by limiting the amount of chlorhexidine acetate available to enter the bloodstream, the preferred maximum amount of chlorhexidine acetate on the elongate member is 2000 μg, more preferred is 1000 μg, and most preferred is 350 μg.
smiles,measurement,setting,value
CC(=O)O.CC(=O)O.NC(=N\CCCCCC/N=C(N)/N=C(\N)Nc1ccc(Cl)cc1)/N=C(\N)Nc1ccc(Cl)cc1 [chlorhexidine acetate],organisms killed in the catheter versus amount on the elongate member,[1],dose response
same,kill of Candida albicans seeded within the catheter's luer region,Candida albicans,killed all
same,reduction in number of infection-causing organisms,[2],"> 10,000 ×"
